Values after ≈ are worked out from the molar mass of the structure shown.
Assays:
[1] = system: Staph. aureus SK & F 2591; assay: MIC, standard microtiter assay; type: cell-based; settings: Staphylococcus aureus
[2] = system: Clostridium perfringens MCP-1; assay: microbe, parasite or virus in culture; type: cell-based; settings: MCP1
[3] = system: Strep. faecalis SK & F 34358; assay: MIC, standard microtiter assay; type: cell-based; settings: Enterococcus faecalis
[4] = system: B. loeochis SK & F 3087; assay: MIC, standard microtiter assay; type: cell-based; settings: Table D, Anaerobes
Description: The AAD 216 aglycone, the AAD 216 pseudo-aglycone, the AAD 216A pseudo-aglycone, the AAD 216B pseudo-aglycone and the AAD 216C pseudo-aglycone were neutralized with sodium bicarbonate prior to testing.

[5] = system: Staph. aureus SK & F 2592; assay: MIC, standard microtiter assay; type: cell-based; settings: Staphylococcus aureus
[6] = system: Staph. aureus SK & F 2621; assay: MIC, standard microtiter assay; type: cell-based; settings: Staphylococcus aureus
[7] = system: Staph. aureus SK & F 2590; assay: MIC, standard microtiter assay; type: cell-based; settings: Staphylococcus aureus
[8] = system: Staph. aureus SK & F 2743; assay: MIC, standard microtiter assay; type: cell-based; settings: Staphylococcus aureus
[9] = system: Enterobacter cloacae HH31254; assay: MIC, standard microtiter assay; type: cell-based
[10] = system: Staph. aureus SK & F 1761; assay: MIC, standard microtiter assay; type: cell-based; settings: Staphylococcus aureus
[11] = system: Staph. aureus SK & F 2677; assay: MIC, standard microtiter assay; type: cell-based; settings: Staphylococcus aureus
[12] = system: C. perfringens ATCC 19408; assay: microbe, parasite or virus in culture; type: cell-based; settings: Clostridium perfringens, ATCC19408
[13] = system: Staph. aureus SK & F 2776; assay: MIC, standard microtiter assay; type: cell-based; settings: Staphylococcus aureus
[14] = system: inoculum (ileal or cecal cannula filtrate); assay: swine in vitro model, growth promotant activity; settings: experiment I, 5 hours, 37° C.; for GLU (% Control): glucose; for LAC (% Control): lactic acid; for LYS (% Control): lysine; for VFA (% Control): total volatile fatty acids
[15] = system: B. thetaiotomicron H-145; assay: MIC, standard microtiter assay; type: cell-based
[16] = system: Pseudomonas aeruginosa HH63; assay: MIC, standard microtiter assay; type: cell-based
[17] = system: Proteus mirabilis SK & F 444; assay: MIC, standard microtiter assay; type: cell-based
[18] = system: Staph. aureus SK & F 2666; assay: MIC, standard microtiter assay; type: cell-based; settings: Staphylococcus aureus
[19] = system: Staph. aureus SK & F 2595; assay: MIC, standard microtiter assay; type: cell-based; settings: Staphylococcus aureus
[20] = system: k. pneumoniae 4200 (SK & F 798); assay: MIC, standard microtiter assay; type: cell-based; settings: Klebsiella pneumoniae
[21] = system: Staph. epidermidis SK & F 2265; assay: MIC, standard microtiter assay; type: cell-based; settings: Staphylococcus epidermidis
[22] = system: Staph. aureus SK & F 209P-mutant; assay: microbe, parasite or virus in culture; type: cell-based; settings: Staphylococcus aureus
[23] = system: C. perfringens SK & F 2769; assay: microbe, parasite or virus in culture; type: cell-based; settings: Clostridium perfringens
[24] = system: Staph. aureus SK & F 674-P6-mutant; assay: microbe, parasite or virus in culture; type: cell-based; settings: Staphylococcus aureus
[25] = system: C. difficile SK & F 3141; assay: MIC, standard microtiter assay; type: cell-based; settings: Clostridioides difficile
[26] = system: B. thetaiotamicron SK & F 3089; assay: MIC, standard microtiter assay; type: cell-based
[27] = system: Staph. aureus SK & F 2616; assay: MIC, standard microtiter assay; type: cell-based; settings: Staphylococcus aureus
[28] = system: Proteus morgani SK & F 179; assay: MIC, standard microtiter assay; type: cell-based
[29] = system: Strep. faecilis HH34358; assay: MIC, standard microtiter assay; type: cell-based
[30] = system: C. difficile SK & F 3092; assay: MIC, standard microtiter assay; type: cell-based; settings: Clostridioides difficile
[31] = system: Staph. aureus SK & F 910; assay: MIC, standard microtiter assay; type: cell-based
[32] = system: Staph. aureus SK & F 2597; assay: MIC, standard microtiter assay; type: cell-based; settings: Staphylococcus aureus
[33] = system: C. difficile SK & F 3065; assay: MIC, standard microtiter assay; type: cell-based; settings: Clostridioides difficile
[34] = system: C. difficile SK & F 3098; assay: MIC, standard microtiter assay; type: cell-based; settings: Clostridioides difficile

SMILES: CN[C@H](CC(C)C)C(=O)N[C@H]1C(=O)N[C@@H](CC(N)=O)C(=O)N[C@H]2C(=O)N[C@H]3C(=O)N[C@H](C(=O)N[C@H](C(=O)O)c4cc(O)cc(O)c4-c4cc3ccc4O)[C@H](O)c3ccc(c(Cl)c3)Oc3cc2cc(c3O[C@@H]2O[C@H](CO)[C@@H](O)[C@H](O)[C@H]2O[C@H]2C[C@](C)(N)[C@H](O)[C@H](C)O2)Oc2ccc(cc2Cl)[C@H]1O [Vancomycin, vancomycin]
- MIC [1]: 1.6 µg/mL (≈ 1.1 µM)
- MIC [2]: 0.5 µg/mL (≈ 0.345 µM)
- MIC [3]: 3.1 µg/mL (≈ 2.14 µM)
- MIC [4]: 32 µg/mL (≈ 22.1 µM)
- MIC [5]: 3.1 µg/mL (≈ 2.14 µM)
- MIC [6]: 1.6 µg/mL (≈ 1.1 µM)
- MIC [7]: 1.6 µg/mL (≈ 1.1 µM)
- MIC [8]: 1.6 µg/mL (≈ 1.1 µM)
- MIC [9]: > 100 µg/mL
- MIC [10]: 1.6 µg/mL (≈ 1.1 µM)
- MIC [11]: 1.6 µg/mL (≈ 1.1 µM)
- MIC [12]: 1 µg/mL (≈ 0.69 µM)
- MIC [13]: 1.6 µg/mL (≈ 1.1 µM)
- GLU (% Control) ([14]; 1.67 ppm): 100 % Control
- LAC (% Control) ([14]; 1.67 ppm): 99 % Control
- LYS (% Control) ([14]; 1.67 ppm): 83 % Control
- VFA (% Control) ([14]; 1.67 ppm): 92 % Control
- GLU (% Control) ([14]; 16.67 ppm): 189 % Control
- LAC (% Control) ([14]; 16.67 ppm): 59 % Control
- LYS (% Control) ([14]; 16.67 ppm): 42 % Control
- VFA (% Control) ([14]; 16.67 ppm): 280 % Control
- GLU (% Control) ([14]; 166.67 ppm): 190 % Control
- LAC (% Control) ([14]; 166.67 ppm): 64 % Control
- LYS (% Control) ([14]; 166.67 ppm): 48 % Control
- VFA (% Control) ([14]; 166.67 ppm): 250 % Control
- MIC [15]: > 32 µg/mL
- MIC [16]: > 100 µg/mL
- MIC [17]: 100 µg/mL (≈ 69 µM)
- MIC [18]: 1.6 µg/mL (≈ 1.1 µM)
- MIC [19]: 1.6 µg/mL (≈ 1.1 µM)
- MIC [20]: > 100 µg/mL
- MIC [21]: 3.1 µg/mL (≈ 2.14 µM)
- MIC [22]: 100 µg/mL (≈ 69 µM)
- MIC [23]: 0.5 µg/mL (≈ 0.345 µM)
- MIC [24]: 100 µg/mL (≈ 69 µM)
- MIC [25]: 1 µg/mL (≈ 0.69 µM)
- MIC [26]: 32 µg/mL (≈ 22.1 µM)
- MIC [27]: 0.8 µg/mL (≈ 0.552 µM)
- MIC [28]: > 100 µg/mL
- MIC [29]: 3.1 µg/mL (≈ 2.14 µM)
- MIC ([30]; Table D, Anaerobes): 2 µg/mL (≈ 1.38 µM)
- MIC ([30]; Table F): 0.5 µg/mL (≈ 0.345 µM)
- MIC ([31]; Staphylococcus aureus): 1.6 µg/mL (≈ 1.1 µM)
- MIC ([31]; Table A, Staph. aureus SK & F 910): 1.6 µg/mL (≈ 1.1 µM)
- MIC ([31]; Table E, Staph. aureus SK & F 910): 1.6 µg/mL (≈ 1.1 µM)
- MIC [32]: 3.1 µg/mL (≈ 2.14 µM)
- MIC ([33]; Table D, Anaerobes): 4 µg/mL (≈ 2.76 µM)
- MIC ([33]; Table F): 1 µg/mL (≈ 0.69 µM)
- MIC [34]: 2 µg/mL (≈ 1.38 µM)

Reference: patent publication US4521335A, “Aglycone and pseudo-aglycones of the AAD 216 antibiotics” (SmithKline Beckman Corporation, priority 1984, dated 1985)
